Reference: article PMC5910394, “Mechanically interlocked functionalization of monoclonal antibodies” (Nature Communications, 2018)
Starred links: 1 amine or outer side, 2 acyl side, 3 side chain; linkers in the order of their positions; H or OH if unused. Positions of bridges follow the written chain, without caps; N, C: chain ends. Non-standard residues stand in square brackets, D forms with d. Residues, ends and D or L forms follow the SMILES beside them. X1 = [N-]=[N+]=NCCOCCOCCNC(=N)NCCC[C@H](N[*:1])C(=O)[*:2]; Dip = N[C@H](C(=O)O)C(c1ccccc1)c1ccccc1

Tests used:
[1] = system: memAb anti-HER2; assay: SPR binding kinetics of meditope variants to immobilized memAb anti-HER2; details: n=1
[2] = target: Ile83Glu memAb anti-HER2; assay: SPR binding kinetics of meditope variants to immobilized Ile83Glu memAb anti-HER2
[3] = SPR Biacore T100, memAb on CM5 chip, HBS-EP+, 1:1 model, 25°C

SMILES	ka [1, 3]	Kd ([1]; SPR, 25°C) [µM]	kd ([1]; SPR, 25°C) [s⁻¹]	further results
CC(C)C[C@@H]1NC(=O)[C@H](CCCNC(=N)N)NC(=O)[C@H](CCCNC(=N)N)NC(=O)[C@H]([C@@H](C)O)NC(=O)[C@H](CO)NC(=O)[C@H](CC(C)C)NC(=O)[C@H](CC(=O)O)NC(=O)[C@H](Cc2ccc(O)cc2)NC(=O)[C@H](CCC(N)=O)NC(=O)[C@@H](N)CSSC[C@@H](C(=O)O)NC(=O)[C@H](CCCCN)NC1=O	2.8 M-1s-1 x 104	3.9	0.11	–
CC(C)C[C@@H]1NC(=O)[C@H](C)NC(=O)[C@H](CCCNC(=N)N)NC(=O)[C@H](CO)NC(=O)[C@H](CO)NC(=O)[C@H](CC(C)C)NC(=O)[C@H](CC(N)=O)NC(=O)[C@H](Cc2ccc(O)cc2)NC(=O)[C@H](CCC(N)=O)NC(=O)[C@@H](N)CSSC[C@@H](C(=O)O)NC(=O)[C@H](CCCCN)NC1=O	0.97 M-1s-1 x 104	3.4	0.033	–
CC(C)C[C@@H]1NC(=O)[C@H](CCCNC(=N)N)NC(=O)[C@H](CCCNC(=N)N)NC(=O)[C@H]([C@@H](C)O)NC(=O)[C@H](CO)NC(=O)[C@H](CC(C)C)NC(=O)[C@H](CC(=O)O)NC(=O)[C@H](Cc2ccc(Br)cc2)NC(=O)[C@H](CCC(N)=O)NC(=O)[C@@H](N)CSSC[C@@H](C(=O)O)NC(=O)[C@H](CCCCN)NC1=O	0.91 M-1s-1 x 104	4.7	0.042	–
CC(=O)N[C@H]1CSSC[C@@H](C(=O)NCC(=O)NCC(=O)N[C@@H](CO)C(=O)N[C@@H](CCCCN)C(=O)O)NC(=O)[C@H](CCCNC(=N)N)NC(=O)[C@H](CC(C)C)NC(=O)[C@H](CCCNC(=N)N)NC(=O)[C@H](CCCNC(=N)N)NC(=O)[C@H]([C@@H](C)O)NC(=O)[C@H](CO)NC(=O)[C@H](CC(C)C)NC(=O)[C@H](CC(=O)O)NC(=O)[C@H](Cc2ccccc2)NC(=O)[C@H](CCC(N)=O)NC1=O	2.8 M-1s-1 x 104	0.21	0.006	Kd ([2]; SPR, 25°C, n=1): 0.00044 µM; ka ([2]; SPR, 25°C, n=1): 71 M-1s-1 x 104; Kd ([2]; SPR, 37°C, n=4, mean (±SD)): 0.004 µM; ka ([2]; SPR, 37°C, n=4, mean (±SD)): 16 (±6) M-1s-1 x 104; Kd ([1]; SPR, 37 °C): 0.35 µM; ka ([1]; SPR, 37 °C): 7.5 M-1s-1 x 104; kd ([1]; SPR, 37 °C): 0.026 s⁻¹
CC(=O)N[C@H]1CSSC[C@@H](C(=O)NCC(=O)NCC(=O)N[C@@H](CO)C(=O)N[C@@H](CCCCN)C(=O)O)NC(=O)[C@H](CCCNC(=N)N)NC(=O)[C@H](CC(C)C)NC(=O)[C@H](CCCNC(=N)N)NC(=O)[C@H](CCCNC(=N)NCCOCCOCCN=[N+]=[N-])NC(=O)[C@H]([C@@H](C)O)NC(=O)[C@H](CO)NC(=O)[C@H](C(c2ccccc2)c2ccccc2)NC(=O)[C@H](CC(=O)O)NC(=O)[C@H](Cc2ccccc2)NC(=O)[C@H](CCC(N)=O)NC1=O (Ac-CQFD[Dip]ST[X1]RLRCGGSK-OH; disulfide 1-12)	–	–	–	Kd ([2]; SPR sensogram (Fig. 1c E83 / Supplementary Fig. 1a), 37 °C, n = 1): 0.0021 µM; half-life of the interaction (τ) ([2]; SPR, 37 °C): 1.38 h

Now from value to molecule, other results behind:

ka [1, 3]	Kd ([1]; SPR, 25°C) [µM]	kd ([1]; SPR, 25°C) [s⁻¹]	SMILES	further results
0.92 M-1s-1 x 104	2.6	0.024	CC(C)C[C@@H]1NC(=O)[C@H](CCCNC(=N)N)NC(=O)[C@H](CCCNC(=N)N)NC(=O)[C@H]([C@@H](C)O)NC(=O)[C@H](CO)NC(=O)[C@H](CC(C)C)NC(=O)[C@H](CC(=O)O)NC(=O)[C@H](C(c2ccccc2)c2ccccc2)NC(=O)[C@H](CCC(N)=O)NC(=O)[C@@H](N)CSSC[C@@H](C(=O)O)NC(=O)[C@H](CCCCN)NC1=O	–
2.1 M-1s-1 x 104	5.7	0.12	CC(C)C[C@@H]1NC(=O)[C@H](CCCNC(=N)N)NC(=O)[C@H](CCCNC(=N)N)NC(=O)[C@H]([C@@H](C)O)NC(=O)[C@H](CO)NC(=O)[C@H](CC(C)C)NC(=O)[C@H](CC(=O)O)NC(=O)[C@H](Cc2ccccc2)NC(=O)[C@H](CCC(N)=O)NC(=O)CCCCCCNC(=O)[C@H](CCCCN)NC1=O	–
1.8 M-1s-1 x 104	1	0.018	CC(C)C[C@@H]1NC(=O)[C@H](CCCNC(=N)N)NC(=O)[C@H](CCCNC(=N)N)NC(=O)[C@H]([C@@H](C)O)NC(=O)[C@H](CO)NC(=O)[C@H](CC(C)C)NC(=O)[C@H](CC(=O)O)NC(=O)[C@H](Cc2ccccc2)NC(=O)[C@H](CCC(N)=O)NC(=O)CCSSC[C@@H](C(=O)O)NC(=O)[C@H](CCCCN)NC1=O [(MPT) QFDLSTRRLKC]	–
20 M-1s-1 x 104	0.04	0.008	CC(C)C[C@@H]1NC(=O)[C@H](CCCNC(=N)N)NC(=O)[C@H](CCCNC(=N)N)NC(=O)[C@H]([C@@H](C)O)NC(=O)[C@H](CO)NC(=O)[C@H](C(c2ccccc2)c2ccccc2)NC(=O)[C@H](CC(=O)O)NC(=O)[C@H](Cc2ccccc2)NC(=O)[C@H](CCC(N)=O)NC(=O)[C@@H](N)CSSC[C@@H](C(=O)O)NC(=O)[C@H](CCCCN)NC1=O [CQFDA(Ph)2STRRLKC]	–
